{"source": "paper PMC12607897", "about": "“Inhibition of HIV-1 replication by primer RNA packaging inhibitors” (mBio, 2025)", "key": {"[1]": {"biological_target": "T1, mLysRS:IN interaction (human mLysRS, HIV-1 IN) (UniProt P12497+Q15046)", "T1 construct": "made in house", "T1 sequence (Q15046 other isoform, or with tags, fused parts or gaps, other chains not shown)": "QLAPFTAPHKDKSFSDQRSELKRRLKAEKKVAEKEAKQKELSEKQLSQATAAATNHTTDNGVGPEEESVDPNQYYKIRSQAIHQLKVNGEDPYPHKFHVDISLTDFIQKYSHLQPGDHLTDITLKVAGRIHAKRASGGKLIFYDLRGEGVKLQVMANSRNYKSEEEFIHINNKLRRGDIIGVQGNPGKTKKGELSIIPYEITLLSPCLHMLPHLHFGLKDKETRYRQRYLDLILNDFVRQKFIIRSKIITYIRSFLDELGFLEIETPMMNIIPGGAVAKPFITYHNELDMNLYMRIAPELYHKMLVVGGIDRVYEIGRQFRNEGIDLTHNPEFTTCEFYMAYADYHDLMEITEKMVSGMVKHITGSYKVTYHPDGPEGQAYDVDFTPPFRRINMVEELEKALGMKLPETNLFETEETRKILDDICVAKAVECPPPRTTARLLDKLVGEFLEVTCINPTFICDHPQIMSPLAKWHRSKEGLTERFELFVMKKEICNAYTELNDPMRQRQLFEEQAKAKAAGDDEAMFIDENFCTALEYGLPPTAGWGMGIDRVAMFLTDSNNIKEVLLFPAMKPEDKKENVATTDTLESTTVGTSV", "assay": "HTRF assay of mLysRS:IN interaction", "format": "binding, human / HIV-1", "details": "HTRF; mLysRS 1.5 nM dimer, IN 25 nM dimer; read-out: half-maximal inhibitory concentration (IC50) in the mLysRS:IN assay", "procedure": "Fig 1 Determination of the half-maximal inhibitory concentration (IC50) of the drugs in the mLysRS:IN binding assay. The binding of mLysRS to IN (red) or p38 (blue) was monitored in the HTRF assay in the presence of increasing drug concentrations (9–1,000 µM). The experimental values (symbols) were fitted (curves) to the equation Y = Ymin + {(Ymax − Ymin)/[1 + (X/IC50)^n]}, where n is the Hill coefficient. […] Proteins were isolated as described previously ([4]). Several batches of IN were used throughout this study. […] The molecules are dissolved in DMSO at a final concentration of 10 mM. After a 1 h incubation on ice, antibodies (Cisbio) directed to the His-tag and conjugated with Eu^3+ cryptate (Cisbio #61HISKLB) and the HA-tag conjugated with XL665 (Cisbio #610HAXLB) were added, and incubation was continued for 30 min. After the addition of 50 mM KF, fluorescence of Eu^3+ cryptate and of XL665 was recorded at 620 nm (I620) and 665 nm (I665), respectively, following excitation of Eu^3+ cryptate at 317 nm, in an Infinite M1000 PRO microplate reader (TECAN). The results were expressed as the ratio of I665/I620."}, "mLysRS": {"biological_target": "mLysRS (Homo sapiens, UniProt Q15046)", "sequence (Q15046 31-625 isoform Q15046-2)": "as the sequence (Q15046 other isoform, or with tags, fused parts or gaps, other chains not shown) above", "assay": "tRNA aminoacylation assay", "format": "biochemical", "details": "drug added up to 1 mM", "procedure": "Initial rates of tRNA aminoacylation were measured at 25°C in 0.1 mL of 20 mM Imidazole-HCl buffer (pH 7.5), 100 mM KCl, 0.5 mM DTT, 12 mM MgCl2, 2 mM ATP, 180 µM ^14C-labeled lysine (NEN; 16.66 Ci/mol), and saturating amounts of global yeast tRNA ([30]). The incubation mixture contained catalytic amounts (2 nM) of mLysRS appropriately diluted in 10 mM Tris-HCl (pH 7.5), 10 mM 2-mercaptoethanol, containing bovine serum albumin at 4 mg/mL. Inhibitors were added at final concentrations ranging from 3.9 to 1,000 µM. One unit of activity is the amount of enzyme producing 1 nmol of lysine-tRNA^Lys/min, at 25°C.\nFig. S5. Effect of inhibitors on mLysRS activity. The tRNA-aminoacylation activity of mLysRS\nwas determined in the presence of increasing concentrations of the drugs. Two independent\nexperiments were performed and standard deviations are shown.\nFig. 6. Raw data of quantification of minus-strand strong stop viral DNA and viral RNA by\ndigital PCR from viruses recovered after 72 h incubation in the presence of 10 µM of the drugs."}, "[2]": {"tested_on": "HIV-1 NL4-3 virus particles", "assay": "digital PCR / RT-dPCR of minus-strand strong stop cDNA and viral RNA in particles", "format": "cell-based", "details": "10 µM drug, 72 and 96 h after infection", "description": "We used digital RT-PCR and digital PCR to determine the viral mRNA and minus-strand strong stop viral cDNA content of the particles (Fig. 7; Fig. S6). The amount of early viral cDNA produced in the HIV-1 particles is a measure of the efficiency of the initiation step of reverse transcription, which requires the packaging of tRNA3^Lys at the budding step, the primer for cDNA synthesis.\nFig 7 Effect of drugs on viral synthesis of minus-strand strong stop cDNA. Viruses were harvested from the culture medium after 72 (red) or 96 h (blue) of infection of MT4 cells with NL4-3 viruses. Minus-strand strong stop viral DNA and viral RNA (vRNA) were quantified by digital PCR and RT-dPCR, respectively. Viruses were harvested from cultures grown in the presence of 10 µM of azelastine (Aze), lacidipine (Lac), or cilnidipine (Cil), or H2O or DMSO as controls. Values and the associated standard deviations (n = 3) are expressed as the ratios of the values obtained for the H2O or DMSO controls. […].\nMT4 cells (2 × 10^6 cells) were infected with the NL4-3 viruses. After 4–5 h of infection at 37°C, cells were twice washed with PBS, incubated 5 min at 37°C in 0.25% trypsin-EDTA solution (Gibco) to eliminate viruses remaining in the medium, incubated 5 min at 37°C in complete RPMI medium, twice washed with PBS, resuspended in RPMI medium at a cell density of 200 × 10^3 cells/mL and incubated with 10 µM of azelastine (25 mM stock solution in H20), or lacidipine and cilnidipine (25 mM stock solution in DMSO). A second aliquot of the inhibitors was added to the culture medium 48 h after infection. […] All RNA and DNA quantifications were performed by digital PCR and RT-qPCR on a QIAcuity instrument (QIAGEN) using 26K 24-well nanoplates and the QIAcuity Probe PCR and One-Step Viral RT-PCR kits. Primers and probes were 5′-[…], 5′-[…], and 5′-[…] for the quantification of minus-strand strong-stop cDNA, and 5′-[…], 5′-[…], and 5′-[…] CGT for viral RNA quantification."}}, "data": [{"molecule": "CN1CCCC(n2nc(Cc3ccc(Cl)cc3)c3ccccc3c2=O)CC1", "note": "(stereo not drawn) [azelastine]", "values": [{"measurement": "IC50", "setting": "[1]", "value": "340 ± 50", "unit": "µM"}, {"measurement": "inhibition of Lysyl-tRNA^Lys synthesis", "setting": "mLysRS", "value": "did not inhibit"}, {"measurement": "minus-strand strong stop cDNA in viruses, normalized to viral RNA", "setting": "[2]", "value": "significantly reduced"}]}]}
